Laboratory results from US20260137662A1, “CD11B AGONISTS FOR TREATMENT OF AUTOIMMUNE DISEASE” (Rush University Medical Center, priority 2022, published 2026).

Key:
[1] = test system: BMDMs from C57BL/6 wild type mice (WT); test: Biomarker secretion from IMQ-treated bone marrow derived macrophages of wild type mice; type: cell-based; conditions: WT cells, IMQ (20 ug/mL) and LA1 (20 uM) co-treatment, 4 hours
Experimental: (§1) FIG. 7A illustrates levels of biomarker IL-6 secretion in bone marrow derived macrophages (BMDMs) from C57BL/6 wild type (WT) mice, mice with global deletion of CD11b (KO), or C57BL/6 mice expressing CD11b with a point mutation (KI), the macrophages treated for 4 hours with vehicle DMSO (UT), LA1 (20 uM), IMQ (20 ug/mL), or IMQ and LA1 co-treatment. Bars show mean with SD (N=3) (*P<0.05, **P<0.01, ***P<0.001, ****P<0.0001).
as §1, with “7B” for “7A”, “IL-1b” for “IL-6”
as §1, with “7C” for “7A”, “suPAR” for “IL-6”
as §1, with “7D” for “7A”, “IFNb” for “IL-6”
Bone marrow derived macrophages (BMDMs) from C57BL/6 wild type mice (WT), mice with global deletion of CD11b (KO), and C57BL/6 mice expressing CD11b with a point mutation (KI), as described previously (Martinez et al., 2020) were used to evaluate the effect of pharmacologic activation of CD11b by LA1 or genetic activation of CD11b on TLR-pathway dependent biomarkers. BMDMs from WT, KO, and KI mice were left untreated, treated with LA1, treated with IMQ, or co-treated with LA1 and IMQ and levels of biomarkers IL-1b, suPAR, IL-6 and IFN-b were measured 4 hours after treatment.

[2] = test system: IMQ-induced mouse model of lupus; test: IMQ-induced mouse model of lupus, LA1 started 0, 2 or 4 weeks after disease induction; type: in vivo, wild type C57BL/6 mice
Experimental: FIG. 12A illustrates levels of anti-dsDNA antibodies measured weekly in mice co-treated with IMQ and LA1 (30 mg/kg, BID) for 8 weeks. Each dot represents mean +/−SEM (n=4).
FIG. 12B illustrates levels of anti-dsDNA antibodies measured weekly in mice treated with IMQ for 8 weeks starting at week 0 and additionally treated with LA1 (30 mg/kg, BID) for 6 weeks, starting at week 2. Each dot represents mean +/−SEM (n=4).
FIG. 12C illustrates levels of anti-dsDNA antibodies measured weekly in mice treated with IMQ for 8 weeks starting at week 0 and additionally treated with LA1 (30 mg/kg, BID) for 4 weeks, starting at week 4. Each dot represents mean +/−SEM (n=4).
FIG. 12D illustrates levels of biomarker suPAR measured weekly in mice co-treated with IMQ and LA1 (30 mg/kg, BID) for 8 weeks. Each dot represents mean +/−SEM (n=4).
FIG. 12E illustrates levels of biomarker suPAR measured weekly in mice treated with IMQ for 8 weeks starting at week 0 and additionally treated with LA1 (30 mg/kg, BID) for 6 weeks, starting at week 2. Each dot represents mean +/−SEM (n=4).
FIG. 12F illustrates levels of biomarker suPAR measured weekly in mice treated with IMQ for 8 weeks starting at week 0 and additionally treated with LA1 (30 mg/kg, BID) for 4 weeks, starting at week 4. Each dot represents mean +/−SEM (n=4).
FIG. 12G illustrates an experimental timeline for the measurement of anti-dsDNA antibody and suPAR levels in mice treated with IMQ and LA1 for 8 weeks, the LA1 treatment initiated at various time points.
To assess therapeutic efficacy of LA1 in a TLR7-dependent SLE murine model, an IMQ-induced mouse model of lupus (Yokogawa et al., 2014) was used. To induce disease, wild type C57BL/ 6 mice (WT) were treated with IMQ cream (Aldara) over the course of 8 weeks. IMQ-induced mice were then treated with LA 1, the treatment initiated at 0, 2, and 4 weeks after disease induction, as shown in FIG. 12G. Anti-dsDNA antibody and suPAR levels were measured in the murine serum at various time points during treatment.

[3] = LA1 30 mg/kg BID co-treated with IMQ for 8 weeks (start week 0)
[4] = LA1 30 mg/kg BID started four weeks after initial IMQ (after disease onset)
[5] = LA1 30 mg/kg BID started two weeks after initial IMQ (after disease onset)

O=C(O)c1ccc(-c2ccc(/C=C3\SC(=S)N(Cc4ccccc4)C3=O)o2)cc1 [LA1, (Z)-4-(5-((3-benzyl-4-oxo-2-thioxothiazolidin-5-ylidene)methyl)furan-2-yl)benzoic acid]
level of IFN-b in cell supernatant [1]: significantly suppressed
level of IL-1b in cell supernatant [1]: significantly suppressed
level of IL-6 in cell supernatant [1]: significantly suppressed
level of suPAR in cell supernatant [1]: significantly suppressed
anti-dsDNA antibody levels in serum [2, 3]: significantly reduced
suPAR levels in serum [2, 3]: significantly reduced
anti-dsDNA antibody levels in serum [2, 4]: significantly reduced
suPAR levels in serum [2, 4]: significantly reduced
anti-dsDNA antibody levels in serum [2, 5]: significantly reduced
suPAR levels in serum [2, 5]: significantly reduced
